According to patent publication US20230382915A1, “GCN2 AND PERK KINASE INHIBITORS AND METHODS OF USE THEREOF” (Deciphera Pharmaceuticals, LLC, priority 2021, published 2023):

Assays:
MV-4-11 xenograft = MV-4-11 xenograft efficacy model; format: in vivo, mice; conditions: 14 days of dosing
Method: The MV-4-11 xenograft model was performed in compliance with all the laws, regulations and guidelines of the National Institutes of Health (NIH) and with the approval of the Animal Care and Use Committee of Crown Bioscience (Taicang, China), an AAALAC accredited facility. Food and water was provided ad libitum. […] Female NOD/SCID (6-9 weeks old; Vital River Laboratories Research Models and Services (Beijing, China)) were inoculated subcutaneously right front flank region with five million cells in Dulbecco's Phosphate Buffered Saline:Matrigel (1:1), using a 27-gauge needle and syringe. When tumor burdens reached 150 mm 3 on average on day 7, mice were randomly assigned into groups such that the mean tumor burden for all groups was within 10% of the overall mean tumor burden for the study population. Groups were treated on days 7-21 as follows: vehicle control (dosed orally and IP to mimic combination groups) (n=10); Compound 2 dosed orally at 50 mg/kg/day of Compound 2 (n=10); Leunase (Kyowa Kirin, Japan) dosed IP at 1000 U/kg/day (n=10); Leunase (Kyowa Kirin, Japan) dosed IP at 1000 U/kg/day (n=10) and Compound 2 dosed orally at 50 mg/kg/day of Compound 2 (n=10). Tumor volume and body weight were measured three time per week. Tumor burden (mg) was estimated from caliper measurements by the formula: tumor burden (mg=mm 3)=(length×width 2)/2.

[1] = system: H2030 solid tumor spheroids; test: Spheroid proliferation assay, H2030; format: cell-based; conditions: for spheroid growth, combination treatment: 96 h
Method: Non Small Cell Lung Cancer (NSCLC) cell lines H358 (catalog #CRL-5807) and H2030 (catalog #CRL-5914), and fibrosarcoma line HT-1080 (catalog […]) were obtained from the American Type Culture Collect (ATTC, Manassas, VA). Cells were grown in RPMI-1640 medium supplemented with 10% heat-inactivated fetal bovine serum and 1% Penicillin/Streptomycin/L-Glutamine (Invitrogen, Carlsbad, CA) at 37° C., 5% CO2, and 95% humidity and maintained at 50-80% confluency until use. 500-1000 cells were plated in 96-well ultra-low attachment plates (Corning, Glendale, AZ) with complete growth media at 80 μL/well and incubated overnight at 37° C., 5% CO2, and 95% humidity to form spheroids. The next day, serial dilutions of test compounds were prepared in complete growth media and 20 μL/well media containing compound titers was added to spheroids in triplicate. […] At the end of the incubation, spheroids were lysed with 100 μL/well CellTiter-Glo 3D Viability Assay (Promega, Madison, WI) and luminescence was detected using Synergy2 or equivalent reader (Biotek, Winooski, VT). Data was analyzed using GraphPad Prism software (GraphPad, San Diego, CA) to calculate IC50 values.

[2] = system: HT-1080 cell line with GCN2 or PERK knockdown; test: HT-1080 shRNA knockdown assay; format: cell-based
Method: Fibrosarcoma cell line HT-1080 (catalog […]) was obtained from the American Type Culture Collect (ATTC, Manassas, VA). Cells were grown in RPMI-1640 medium supplemented with 10% heat-inactivated fetal bovine serum and 1% Penicillin/Streptomycin/L-Glutamine (Invitrogen, Carlsbad, CA) at 37° C., 5% CO2, and 95% humidity and maintained at 50-80% confluency until use. shRNAs-expressing constructs targeting PERK, GCN2 or scrambled control were obtained from MISSION (Sigma, St. Louis, MO) and lentiviruses containing each construct were produced in-house. Cells were plated at 400,000 cells/well in 6-well tissue culture plates (ThermoFisher Scientific, Waltham, MA) with complete growth media and incubated overnight at 37° C., 5% CO2, and 95% humidity to attach. The next day, existing media was removed from each well and replenished with 1 mL/well fresh media containing 5 μg/mL polybrene (VectorBuilder, Chicago, IL). Cells were transduced with 200 μL/well corresponding lentivirus for 24 hours before being processed for western blot and cell proliferation assays.

[3] = system: H358 solid tumor spheroids; test: Spheroid proliferation assay, H358; format: cell-based
Method: Non Small Cell Lung Cancer (NSCLC) cell lines H358 (catalog #CRL-5807) and H2030 (catalog #CRL-5914), and fibrosarcoma line HT-1080 (catalog […]) were obtained from the American Type Culture Collect (ATTC, Manassas, VA). Cells were grown in RPMI-1640 medium supplemented with 10% heat-inactivated fetal bovine serum and 1% Penicillin/Streptomycin/L-Glutamine (Invitrogen, Carlsbad, CA) at 37° C., 5% CO2, and 95% humidity and maintained at 50-80% confluency until use. 500-1000 cells were plated in 96-well ultra-low attachment plates (Corning, Glendale, AZ) with complete growth media at 80 μL/well and incubated overnight at 37° C., 5% CO2, and 95% humidity to form spheroids. The next day, serial dilutions of test compounds were prepared in complete growth media and 20 μL/well media containing compound titers was added to spheroids in triplicate. Spheroids were then incubated with test compounds for 5 days under the same conditions. At the end of the incubation, spheroids were lysed with 100 μL/well CellTiter-Glo 3D Viability Assay (Promega, Madison, WI) and luminescence was detected using Synergy2 or equivalent reader (Biotek, Winooski, VT). Data was analyzed using GraphPad Prism software (GraphPad, San Diego, CA) to calculate IC50 values.

SMILES: Cn1cc(-c2cccc(NS(=O)(=O)c3cc(Cl)cc(CO)c3Cl)c2F)c2c(N)ncnc21 [Example 2, N-(3-(4-amino-7-methyl-7H-pyrrolo[2,3-d]pyrimidin-5-yl)-2-fluorophenyl)-2,5-dichloro-3-(hydroxymethyl)benzenesulfonamide]
- mean tumor growth inhibition (MV-4-11 xenograft; 50 mg/kg/day combined with Leunase): 54%
- effect on tumor growth, single agent (MV-4-11 xenograft; 50 mg/kg/day orally): no significant effect on tumor growth
- cell regression, single agent ([1]; 5 days, FIG. 11A): 50%
- spheroid growth, combination treatment ([1]; with 3.3 nM sotorasib, FIG. 12A): greater spheroid regression compared to either single agent
- spheroid growth, combination treatment ([1]; with 3.7 nM trametinib, FIG. 12C): greater spheroid regression compared to either single agent
- compound-mediated spheroid growth inhibition upon knockdown ([2]; FIG. 13C): attenuated upon knockdown of GCN2 but not PERK
- reduction of compound-mediated upregulation of ATF4 ([2]; upon knockdown of GCN2, FIG. 13B): 75%
- reduction of compound-mediated upregulation of ATF4 ([2]; upon knockdown of PERK, FIG. 13B): 50%
- IC50 ([3]; Homo sapiens, NCI-H358, 120 h, 5 days, FIG. 11B, read-out: inhibition of cell proliferation IC50, single agent): 10 nM
- spheroid growth, combination treatment ([3]; with 3.3 nM sotorasib, 96 h, FIG. 12B): greater spheroid regression compared to either single agent
